# Assays:
# Ttr RNA = Ttr RNA quantification (qRT-PCR) in murine primary hepatocytes, depot release; assay type: cell-based, mouse; conditions: 0.05 nM GN3-siTTR 6 hrs loading, wash, saponin component 48 hrs
# Procedure: Wells of a 24- or 96-well plate (Greiner BioOne) were coated overnight at 37° C. with rat collagen-I (Ibidi). Next day the coating solution was removed and the wells were washed 1× with PBS (PAN-Biotech GmbH). Hepatocyte Plating Medium (HPM, […] Cell Culture Technology GmbH) was added using 210 μl or 35 μl per well, per 24-wp or 96-wp respectively. Next, GN3-siTTR/DPBS was dissolved at 10× the final concentration (final concentration is 0.5 nM or 0.05 nM GN3-siTTR, as indicated) and 90 μl or 15 μl was added to each well, per 24-wp or 96-wp respectively. Cryopreserved primary mouse hepatocytes (Cytes Biotechnology) were thawed in Hepatocyte Thawing Medium (HTM, […] Cell Culture Technology GmbH) and collected by centrifugation at 50×g for 10 min. […]
# RNA from cells was isolated using TRIzol™ Reagent (Thermo Scientific) according to the manufacturer's instruction. […] Ttr expression levels and levels of specific hepatocyte housekeeping genes were determined using quantitative real-time PCR assays (qRT-PCR) using iTaq™ Universal SYBR® Green Supermix (BioRad) and the Light Cycler 480 II (Roche Diagnostics) with specific DNA primers, listed in Table A2. […]
# The timed, saponin-component-inducible release of a nucleic acid from endosomes after prior loading cells with the nucleic acid was also assessed in vitro in murine primary hepatocytes (MPH) in different dosing regimens. […]
# A431 cells [1] = assay: Cell viability (MTS) of A431 cells with aCD71-SPRN and saponin components; assay type: cell-based, human; conditions: for potency of aCD71-SPRN versus co-administration / efficacy enhancement of aCD71-SPRN: 5 pM aCD71-SPRN 24 hr loading, wash; for efficacy enhancement of aCD71-SPRN: 24 hrs resting; for relative cell viability, efficacy of aCD71-SPRN: 5 pM aCD71-SPRN + concentration range of saponin component, 48 hr co-administration
# Procedure: Cells were cultured in DMEM (PAN-Biotech GmbH) supplemented with 10% fetal bovine serum (FBS) (PAN-Biotech GmbH) and Pen/Strep (PAN-Biotech GmbH) at 37° C. and 5% CO2. Cells were seeded in a 96-well plate at 5.000-6.000 cells/well in 100 μL/well and incubated overnight at 37° C. […] The medium was removed from the cell culture plate and replaced by 180 μL fresh culture medium, followed by the addition of 20 μL 10× compound-mix/well. PBS treatment served as vehicle control. After 24 hrs treatment, the cells were washed and incubated with medium or medium containing PBS/saponin components for the time indicated in FIG. 6B, 6C, 6D at 37° C. At the end of the experiment at 48 hr after saponin component treatment or PBS treatment the cells were harvested for cell viability analysis. Alternatively, as a positive control, the cells were treated with a co-administration of protein toxin and saponin component (or PBS) mix for 48 hrs without medium change, FIG. 6A.
# After treatment cell viability was determined by an MTS-assay, performed according to the manufacturer's instruction (CellTiter 96@AQueous One Solution Cell Proliferation Assay, Promega). Briefly, the MTS solution was diluted 20′ in DMEM without phenol red (PAN-Biotech GmbH) supplemented with 10% FBS. The cells were washed once with 200 μL/PBS well, after which 100 μL diluted MTS solution was added/well. The plate was incubated for approximately 20-30 minutes at 37° C. Subsequently, the OD at 492 nm was measured on a Spectramax iD5 plate reader (Molecular Devices). For quantification the background signal of ‘medium only’ wells was subtracted from all other wells, before the cell viability percentage of treated/untreated cells was calculated, by dividing the background corrected signal of treated wells over the background corrected signal of the untreated wells (×100).
# One disadvantage of these types of immunotoxins for clinical use is their relatively narrow therapeutic window and associated potentially life-threatening toxicities at dose levels that are therapeutic. Here, the in vitro efficacy and enhancement of effect durability of an immunotoxin (anti-CD71-saporin, also referred to as aCD71-SPRN, protein toxin) by endosome escape enhancer saponin components was assessed in epidermoid carcinoma cells and metastatic melanoma cells. A concentration range of a saponin component was added either together with a fixed concentration of 5 pM aCD71-SPRN to the cancer cells, or at various time points after the loading of the cancer cells with a fixed concentration of 5 pM aCD71-SPRN (according to dosing schemes in FIG. 6A, 6B, 6C, 6D). As a negative control, cells were loaded with protein toxin according to scheme FIG. 6A-D but received medium with PBS instead of saponin component.
# A431 cells [2] = assay: Imaging of Cy5 fluorescence release from Cet-Cy5 loaded A431 cells; assay type: cell-based, human; conditions: A431 loaded with 2 nM Cet-Cy5 48 hrs, wash, 24 hrs resting, saponin component added at 72 hrs
# Procedure: Cells were cultured in DMEM (PAN-Biotech GmbH) supplemented with 10% fetal bovine serum (FBS) (PAN-Biotech GmbH) and Pen/Strep (PAN-Biotech GmbH) at 37° C. and 5% CO2.
# [3] = 6 hrs resting, saponin component 48 hrs
# [4] = saponin component added directly, 48 hrs
smiles,measurement,setting,value
CC(=O)OC1C(C)OC(OC2C(C)OC(OC(=O)[C@]34CCC(C)(C)CC3C3=CCC5[C@@]6(C)CC[C@H](OC7OC(C(=O)O)C(O)C(OC8OCC(O)C(O)C8O)C7OC7OC(CO)C(O)C(O)C7O)[C@@](C)(/C=N/NC(=O)CCCCCN7C(=O)CC(SCCO)C7=O)C6CC[C@@]5(C)[C@]3(C)C[C@H]4O)C(OC3OC(C)C(OC4OCC(O)C(OC5OC(CO)C(O)C(O)C5O)C4O)C(O)C3O)C2O)C(O)C1OC1OCC(O)C(O)C1O (some centres unmarked) [SO1861-AH-Maleimide-Block],remaining Ttr levels,Ttr RNA,3%
same,potency of aCD71-SPRN versus co-administration,A431 cells [1]; [3],very comparable to the co-administration
same,efficacy enhancement of aCD71-SPRN,A431 cells [1]; saponin component 48 hrs,still apparent
same,potency of aCD71-SPRN versus co-administration,A431 cells [1]; [4],comparable high potency
same,"relative cell viability, efficacy of aCD71-SPRN",A431 cells [1],reduces cell viability
CC(=O)O[C@H]1[C@H](O[C@@H]2OC[C@@H](O)[C@H](O)[C@H]2O)[C@@H](O)[C@H](O[C@@H]2[C@H](O)[C@@H](O[C@@H]3O[C@@H](C)[C@H](O[C@@H]4OC[C@@H](O)[C@H](O[C@@H]5O[C@H](CO)[C@@H](O)[C@H](O)[C@H]5O)[C@H]4O)[C@@H](O)[C@H]3O)[C@H](OC(=O)[C@]34CCC(C)(C)C[C@H]3C3=CC[C@@H]5[C@@]6(C)CC[C@H](O[C@@H]7O[C@H](C(=O)O)[C@@H](O)[C@H](O[C@@H]8OC[C@@H](O)[C@H](O)[C@H]8O)[C@H]7O[C@@H]7O[C@H](CO)[C@H](O)[C@H](O)[C@H]7O)[C@@](C)(C=O)[C@@H]6CC[C@@]5(C)[C@]3(C)C[C@H]4O)O[C@@H]2C)O[C@@H]1C [SO1861],remaining Ttr levels,Ttr RNA,10%
same,Cy5 fluorescence state at end of experiment at 160 hrs,A431 cells [2],zero fluorescent state
same,potency of aCD71-SPRN versus co-administration,A431 cells [1]; [3],very comparable to the co-administration
same,efficacy enhancement of aCD71-SPRN,A431 cells [1]; saponin component 48 hrs,still apparent
same,potency of aCD71-SPRN versus co-administration,A431 cells [1]; [4],comparable high potency
same,"relative cell viability, efficacy of aCD71-SPRN",A431 cells [1],reduces cell viability

# — patent US20250205361A1, “TREATMENT […] FOR T[…] […] ACT VIA AN INT[…] TARGET” (priority 2023, published 2025)
